# Calls of active or inactive are those of the source.
# How the values were obtained:
# [1] = microbe, parasite or virus in culture; format: functional; settings: Mycobacterium tuberculosis
# [2] = molecular target: Steroidogenic factor 1 (Homo sapiens, UniProt Q13285); assay: Counterscreen for inverse agonists of the liver receptor homolog-1 (LRH-1; NR5A2): Luminescence-based cell-based high throughput dose response assay to identify inverse agonists of the Steroidogenic Factor 1 Nuclear Receptor (SF1; NR5A1).; format: functional
# [3] = StAR promoter reporter inhibition counter-screen, dose response, counter-screen for LRH-1 inverse agonist project, cell-based, luminescence, luciferase reporter (AID 651969); format: functional
# [4] = molecular target: Nuclear receptor subfamily 5 group A member 2 (Homo sapiens, UniProt O00482); format: functional, cell-based;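 note: HEK293T cells transfected with LRH-1 and a StAR promoter luciferase reporter; potency for inhibitors that lower LRH-1 driven reporter light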
# [5] = molecular target: T1, DNA repair and recombination protein RAD54-like (Homo sapiens, UniProt Q92698); assay: inhibitors of human RAD54 branch migration, confirmation, biochemical, fluorescence, cherry-picked samples, dose series (AID 651657); format: functional
# T1 sequence (Q92698 whole entry): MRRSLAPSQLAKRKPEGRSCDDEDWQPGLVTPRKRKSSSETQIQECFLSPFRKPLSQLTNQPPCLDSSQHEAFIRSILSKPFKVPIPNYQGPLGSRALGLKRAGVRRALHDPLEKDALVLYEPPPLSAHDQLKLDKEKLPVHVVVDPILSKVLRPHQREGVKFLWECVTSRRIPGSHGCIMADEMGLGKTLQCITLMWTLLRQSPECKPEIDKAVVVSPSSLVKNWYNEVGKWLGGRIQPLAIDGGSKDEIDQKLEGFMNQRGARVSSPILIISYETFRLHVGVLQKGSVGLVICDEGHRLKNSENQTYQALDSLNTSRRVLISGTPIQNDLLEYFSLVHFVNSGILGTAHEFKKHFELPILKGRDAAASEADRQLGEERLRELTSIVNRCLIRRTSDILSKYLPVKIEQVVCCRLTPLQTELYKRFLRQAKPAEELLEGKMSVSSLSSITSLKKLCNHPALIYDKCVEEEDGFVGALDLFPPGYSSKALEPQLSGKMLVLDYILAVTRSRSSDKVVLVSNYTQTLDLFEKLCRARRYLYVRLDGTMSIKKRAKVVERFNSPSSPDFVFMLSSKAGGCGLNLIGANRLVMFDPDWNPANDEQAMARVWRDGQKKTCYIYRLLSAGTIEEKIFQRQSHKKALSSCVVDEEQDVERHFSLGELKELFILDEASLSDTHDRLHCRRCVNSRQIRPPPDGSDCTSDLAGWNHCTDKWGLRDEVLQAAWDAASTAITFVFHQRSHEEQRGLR
# [6] = molecular target: T2, Corticotropin-releasing factor receptor 2/Corticotropin-releasing factor-binding protein (Homo sapiens, UniProt P24387+Q13324); assay: activators of CRF receptor 2 with binding protein – uHTS hits, confirmation (AID 602473); format: functional; settings: read-out: EC50_Mean
# T2 sequence (Q13324 whole entry): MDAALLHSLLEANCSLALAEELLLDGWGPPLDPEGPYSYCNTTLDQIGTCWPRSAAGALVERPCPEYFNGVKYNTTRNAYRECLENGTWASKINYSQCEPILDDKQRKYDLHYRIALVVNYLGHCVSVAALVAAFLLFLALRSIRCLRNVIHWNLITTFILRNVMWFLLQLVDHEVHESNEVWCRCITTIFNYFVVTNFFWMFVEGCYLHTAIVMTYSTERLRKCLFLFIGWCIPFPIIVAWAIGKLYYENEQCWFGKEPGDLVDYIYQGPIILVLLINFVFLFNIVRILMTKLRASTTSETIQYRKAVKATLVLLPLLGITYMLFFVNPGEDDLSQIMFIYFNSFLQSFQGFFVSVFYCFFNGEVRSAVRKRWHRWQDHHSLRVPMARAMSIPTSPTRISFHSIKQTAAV
# T2 sequence (P24387 whole entry): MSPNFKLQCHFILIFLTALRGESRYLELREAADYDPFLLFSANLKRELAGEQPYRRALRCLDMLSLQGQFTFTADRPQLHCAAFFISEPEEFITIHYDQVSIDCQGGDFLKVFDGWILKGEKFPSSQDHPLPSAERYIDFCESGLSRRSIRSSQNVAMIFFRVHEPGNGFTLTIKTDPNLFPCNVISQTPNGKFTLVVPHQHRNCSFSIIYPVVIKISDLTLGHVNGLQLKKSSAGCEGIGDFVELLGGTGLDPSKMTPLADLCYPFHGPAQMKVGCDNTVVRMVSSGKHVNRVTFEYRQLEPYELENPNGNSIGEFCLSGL
# [7] = CRF-BP/CRF-R2 complex antagonists, dose response, cell-based, uHTS hits, 384-well (AID 651639); format: functional, Homo sapiens; settings: read-out: IC50_Mean
# [8] = molecular target: T2, Corticotropin-releasing factor receptor 2/Corticotropin-releasing factor-binding protein; assay: Dose Response confirmation of uHTS hits for small molecule antagonists of the CRF-binding protein and CRF-R2 receptor complex.; format: functional; settings: read-out: IC50_Mean
# [9] = molecular target: T3, Insulin-degrading enzyme (Homo sapiens, UniProt P14735); assay: activators of recombinant IDE enzyme, dose response, counter-screen for IDE activator project, biochemical, fluorescence polarization (AID 588681)
# T3 sequence (P14735 whole entry): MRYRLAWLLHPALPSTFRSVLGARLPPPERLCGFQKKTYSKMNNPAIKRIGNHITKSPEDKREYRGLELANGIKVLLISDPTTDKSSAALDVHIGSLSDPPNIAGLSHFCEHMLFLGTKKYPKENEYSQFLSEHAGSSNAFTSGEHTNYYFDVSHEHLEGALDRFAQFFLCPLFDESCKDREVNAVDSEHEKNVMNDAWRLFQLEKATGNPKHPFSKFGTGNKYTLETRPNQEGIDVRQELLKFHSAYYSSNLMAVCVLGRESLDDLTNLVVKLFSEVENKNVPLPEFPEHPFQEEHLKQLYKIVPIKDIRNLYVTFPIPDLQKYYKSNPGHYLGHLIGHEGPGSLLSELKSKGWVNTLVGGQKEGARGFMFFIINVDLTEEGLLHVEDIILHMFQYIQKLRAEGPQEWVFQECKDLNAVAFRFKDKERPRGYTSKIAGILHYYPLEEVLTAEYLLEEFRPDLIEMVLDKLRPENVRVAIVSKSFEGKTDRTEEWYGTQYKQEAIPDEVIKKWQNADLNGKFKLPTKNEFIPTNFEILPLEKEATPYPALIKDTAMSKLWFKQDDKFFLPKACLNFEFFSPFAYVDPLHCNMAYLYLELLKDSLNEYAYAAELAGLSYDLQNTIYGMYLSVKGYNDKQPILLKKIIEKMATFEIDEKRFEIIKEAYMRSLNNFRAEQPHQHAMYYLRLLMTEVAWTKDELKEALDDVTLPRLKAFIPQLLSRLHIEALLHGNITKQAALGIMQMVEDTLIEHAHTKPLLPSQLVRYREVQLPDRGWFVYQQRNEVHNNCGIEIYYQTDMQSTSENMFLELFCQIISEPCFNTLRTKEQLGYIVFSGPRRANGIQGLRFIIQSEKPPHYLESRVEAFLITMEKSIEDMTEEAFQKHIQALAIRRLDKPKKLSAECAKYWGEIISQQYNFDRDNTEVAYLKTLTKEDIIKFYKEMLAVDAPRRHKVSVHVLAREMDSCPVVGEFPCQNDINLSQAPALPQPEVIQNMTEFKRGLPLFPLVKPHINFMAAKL
# [10] = test system: HEK293; assay: HEK cell cytotoxicity by LDH release, dose response, cytotoxicity control for IDE activator project, fluorescence, HEK cells (AID 588440); format: functional, cell-based; settings: Homo sapiens;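 note: cytotoxicity by LDH release measuring loss of membrane integrity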
# [11] = cytotoxicity in HEK-293T cells, dose response, cytotoxicity control for TCR NF-kB inhibitor project, luminescence, T-cell screen hits (AID 489026); format: functional, cell-based;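 note: cells exposed to compound about 14 hours before the viability readout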
# [12] = inhibitors of SNCA 5'UTR-driven reporter translation, confirmation, H4 neuroglioma cells, luminescence (AID 1988); format: functional, cell-based
# [13] = molecular target: T3, Insulin-degrading enzyme; assay: activators of endogenous IDE in HEK cells, dose response, cell-based, fluorescence polarization (AID 588439); format: functional
# [14] = Luminescence Cell-Based Dose Response HTS to Identify Inhibitors of 5'UTR Stem-Loop Driven Prion Protein mRNA Translation in H4 Neuroglioblastoma Cells. [Related pubchem assays: 1827 (Project Summary), 1813 (Primary HTS)]; format: functional
# [15] = test system: HEK293; assay: optical interference in Abeta FP readout, dose response, artefact control for IDE activator project, biochemical, fluorescence polarization (AID 588442); format: functional, cell-based; settings: Homo sapiens
# [16] = molecular target: T4, DNA repair protein RAD52 homolog (Homo sapiens, UniProt P43351); format: functional, biochemical
# T4 sequence (P43351 whole entry): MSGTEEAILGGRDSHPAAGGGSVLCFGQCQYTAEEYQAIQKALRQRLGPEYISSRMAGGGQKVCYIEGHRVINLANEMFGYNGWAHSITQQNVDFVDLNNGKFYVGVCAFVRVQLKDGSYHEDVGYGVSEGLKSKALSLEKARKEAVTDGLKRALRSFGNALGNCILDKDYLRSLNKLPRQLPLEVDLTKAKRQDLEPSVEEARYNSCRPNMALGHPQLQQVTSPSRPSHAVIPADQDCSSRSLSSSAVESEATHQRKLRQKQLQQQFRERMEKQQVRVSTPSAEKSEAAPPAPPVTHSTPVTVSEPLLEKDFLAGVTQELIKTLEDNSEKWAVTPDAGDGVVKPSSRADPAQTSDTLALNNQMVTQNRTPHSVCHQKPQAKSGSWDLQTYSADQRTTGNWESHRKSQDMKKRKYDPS
# [17] = molecular target: Heat shock protein HSP 90-alpha (Homo sapiens, UniProt P07900); format: functional, organism-based
# [18] = molecular target: T5, Sentrin-specific protease 8 (Homo sapiens, UniProt Q96LD8); format: functional
# T5 sequence (Q96LD8 whole entry): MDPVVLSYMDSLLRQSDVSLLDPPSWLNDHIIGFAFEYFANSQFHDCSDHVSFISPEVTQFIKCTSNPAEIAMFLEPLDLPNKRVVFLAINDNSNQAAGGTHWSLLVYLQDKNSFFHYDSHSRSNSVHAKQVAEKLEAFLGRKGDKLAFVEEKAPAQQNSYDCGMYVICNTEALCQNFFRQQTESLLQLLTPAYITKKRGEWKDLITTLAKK
# [19] = molecular target: T5, Sentrin-specific protease 8; format: functional; remark: listed apart in the source
# [20] = intracellular Trypanosoma cruzi inhibitors in host cells – cell-based, plate reader, cherry-pick samples, set 3, dose response (AID 651818); format: functional;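 note: compounds incubated with infected cells for about four days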
# Sequence of Nuclear receptor subfamily 5 group A member 2 (O00482 whole entry): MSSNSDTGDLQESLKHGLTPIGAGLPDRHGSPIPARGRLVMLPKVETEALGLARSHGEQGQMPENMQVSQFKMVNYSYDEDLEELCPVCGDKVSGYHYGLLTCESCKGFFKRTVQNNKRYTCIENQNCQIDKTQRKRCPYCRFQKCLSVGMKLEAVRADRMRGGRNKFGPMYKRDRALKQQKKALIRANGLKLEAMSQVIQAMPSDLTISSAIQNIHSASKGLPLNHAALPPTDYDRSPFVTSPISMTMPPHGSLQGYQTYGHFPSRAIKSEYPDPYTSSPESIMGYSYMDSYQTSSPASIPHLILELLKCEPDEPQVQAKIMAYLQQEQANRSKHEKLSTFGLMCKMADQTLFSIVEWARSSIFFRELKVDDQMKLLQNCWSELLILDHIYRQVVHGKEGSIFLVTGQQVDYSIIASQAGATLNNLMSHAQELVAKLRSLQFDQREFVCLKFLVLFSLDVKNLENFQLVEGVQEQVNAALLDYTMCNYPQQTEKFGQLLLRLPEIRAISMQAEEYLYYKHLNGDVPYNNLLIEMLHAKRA
# Sequence of Steroidogenic factor 1 (Q13285 whole entry): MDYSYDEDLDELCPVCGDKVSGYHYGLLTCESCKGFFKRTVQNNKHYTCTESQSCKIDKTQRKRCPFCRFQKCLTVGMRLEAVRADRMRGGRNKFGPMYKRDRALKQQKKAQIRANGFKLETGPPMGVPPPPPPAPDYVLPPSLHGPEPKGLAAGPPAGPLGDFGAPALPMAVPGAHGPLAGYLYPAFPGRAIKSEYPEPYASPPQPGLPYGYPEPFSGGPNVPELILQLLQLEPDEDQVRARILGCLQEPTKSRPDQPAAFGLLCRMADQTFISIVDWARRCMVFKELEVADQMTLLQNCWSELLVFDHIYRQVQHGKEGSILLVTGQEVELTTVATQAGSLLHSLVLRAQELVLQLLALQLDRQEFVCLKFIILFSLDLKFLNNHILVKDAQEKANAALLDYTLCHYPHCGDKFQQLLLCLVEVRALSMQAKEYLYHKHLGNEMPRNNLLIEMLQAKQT
smiles,measurement,setting,value
COc1ccccc1NC(=O)c1ccc(NC(=O)CSc2nnnn2C)cc1,CC50,[1],> 40 µM (active)
same,IC50,[2],0.77 µM (active)
same,IC50,[3],35.9 µM (inactive)
same,IC50,[4],0.437 µM (active)
CN(C)CCCNc1nc(-c2ccc(Cl)cc2)nc2ccccc12,AC50,[5],22.5 µM (active)
O=C(c1ccco1)N1N=C(c2cccs2)CC1c1ccccc1O (centres undefined),EC50,[6],> 53 µM (inactive)
same,IC50,[7],12.8 µM (active)
same,IC50,[8],6.11 µM (active)
COc1cc(NC(=O)N2CCNC2=O)cc(C(=O)Nc2cccc(C(F)(F)F)c2)c1,EC50,[9],> 54.7 µM (inactive)
same,IC50,[10],> 89.2 µM (inactive)
same,IC50,[11],> 80 µM (inactive)
same,EC50,[12],6.31 µM (active)
same,EC50,[13],> 54.7 µM (inactive)
same,EC50,[14],9.79 µM (active)
same,EC50,[15],> 54.7 µM (inactive)
Cc1ccc(O)c(NC(=S)NC(=O)COc2ccc(Br)cc2)c1,EC50,[6],7 µM (active)
same,EC50,[9],> 54.7 µM (inactive)
same,IC50,[10],10.7 µM (inactive)
same,EC50,[13],> 54.7 µM (inactive)
same,EC50,[15],> 55.9 µM (inactive)
COc1cc2nc3c(O)n(CCN(C(C)C)C(C)C)cnc-3c2cc1OC,AC50,[5],47.7 µM (active)
O=C(c1ccc([N+](=O)[O-])cc1)N(Cc1ccccc1)Cc1ccccc1,EC50,[6],> 53 µM (inactive)
same,IC50,[7],> 20 µM (inactive)
same,IC50,[8],8.56 µM (active)
COc1cc(OC)cc(C(=O)N[C@H](C(=O)OCC(=O)Nc2ccc3c(c2)OCO3)C(C)C)c1,IC50,[2],5.72 µM (active)
same,IC50,[3],35.9 µM (inactive)
same,IC50,[4],4.71 µM (active)
CCCCCCCCCCCCCCCC[n+]1ccccc1,AC50,[16],5.71 µM (active)
same,AC50,[17],2.73 µM (active)
COc1ccc(CCNC(=O)COC(=O)Cc2ccccc2[N+](=O)[O-])cc1,IC50,[2],2.36 µM (active)
same,IC50,[3],35.9 µM (inactive)
same,IC50,[4],35.9 µM (inactive)
O=C(Nc1c(-c2ccccc2)n[nH]c1O)c1cccc(C(F)(F)F)c1,IC50,[18],65.3 µM (inactive)
same,IC50,[19],87.3 µM (inactive)
C[C@@H]1CN([C@H](C)CO)C(=O)Cc2cc(N(C)C)ccc2O[C@H]1CN(C)Cc1ccc(C(=O)Nc2ccccc2N)cc1,AC50,[20],3.46 µM (active)
C[C@@H]1CN([C@H](C)CO)C(=O)Cc2cc(NC(=O)C3CCCCC3)ccc2O[C@@H]1CN(C)Cc1ccc(Cl)c(Cl)c1,AC50,[20],2.15 µM (active)
C[C@H](CO)N1C[C@H](C)[C@H](CN(C)Cc2ccc(-c3ccccc3)cc2)Oc2ccc(NC(=O)Cc3cn(C)c4ccccc34)cc2C1=O,AC50,[20],15 µM (active)
O=C(COC(=O)c1ccc([N+](=O)[O-])o1)NC12CC3CC(CC(C3)C1)C2,IC50,[18],6.85 µM (active)
same,IC50,[19],5.13 µM (active)

# Reference: ChEMBL document CHEMBL1201862, “PubChem BioAssay data set” (2004)
